Measured values from patent publication US12202835B2, “Substituted aromatic ring-linked dioxinoquinazolines and dioxinoquinolines as kinase inhibitors” (BEIJING SCITECH-MQ PHARMACEUTICALS LIMITED, priority 2018, dated 2025).

Experiments:
VEGFR-2 kinase = VEGFR-2 kinase (Homo sapiens (Human), UniProt P35968); assay: Assay of small molecular compounds for inhibiting the activity of VEGFR-2 kinase (LANCE TR-FRET); type: biochemical; settings: read-out: VEGFR2 IC50
Protocol: The assay is based on the LANCE TR-FRET technology of Perkin Elmer Inc., and the assay method is as follows: • 1. Dilution of compounds: a total of 11 concentrations were obtained using a 3-fold gradient dilution from the highest concentration of 2500 nM (the maximum final concentration of the drug used in this assay was 2500 nM, and the minimum final concentration was 0.042 nM). • 2. 2.5 μL of the gradient-diluted compounds were taken with a transfer pipette to a 384-well plate. • 3. Addition of enzyme: 5 μL of 2×VEGFR2 kinase solution (with a concentration of 0.5 nM) was taken with a transfer pipette to the corresponding reaction well of the 384-well plate, mixed well and pre-reacted at room temperature for 30 minutes. • 4. 2.5 μL 4× Ultra ULight™-JAK-1 (Tyr1023) Peptide (with a concentration of 200 nM)/ATP (with a concentration of 40 μM) mixture was taken with a transfer pipette to the corresponding reaction well of the 384-well plate. • 5. Negative control: 2.5 μL/well 4× substrate/ATP mixture and 7.5 μL 1× Kinase Assay Buffer were added to the wells of the 384-well plate. • 6. Positive control: 2.5 μL/well 4× substrate/ATP mixture, 2.5 μL/well 1× Kinase Assay Buffer containing 16% DMSO, and 5 μL/well 2×VEGFR-2 kinase solution were added to the 384-well plate. The final concentration of DMSO in the reaction system was 4%. • 7. The mixture was mixed well and then centrifuged and reacted at room temperature in dark for 60 min. • 8. Termination of the enzymatic reaction: 5 μL of 4× stop solution was taken with a transfer pipette to the wells of the 384-well plate, mixed and then centrifuged, and reacted at room temperature for 5 min. • 9. Development of the reaction: 5 μL of 4× detection solution was taken with a transfer pipette to the wells of the 384-well plate for color development, and the mixture was mixed and then centrifuged and reacted at room temperature for 60 min. • 10. The 384-well plate was placed into the Envision plate reader and the signal was detected using the appropriate program. • 11. Analysis and processing of the raw data: The drug concentrations and the corresponding inhibition rates were input into GraphPad Prism5 for calculation, and the inhibition rate of the compounds were calculated as follows: inhibition rate (%)=(reading of positive well−reading of experimental well)/(reading of positive control well−reading of negative control well)×100%. Processing with GraphPad Prism5 software yielded the corresponding IC50 values (the concentration of the compound at which 50% of the highest inhibition of the enzyme is achieved).

Ba/F3-AXL cells = assay: Assay for inhibiting the proliferation of Ba/F3-AXL cells (CCK-8); type: cell-based; settings: 72 hours of incubation, medium with 100 ng/mL hGas6, CCK-8
Protocol: The values were then imported into Graphpad Prism 5 software for curve fitting, and IC50 was calculated.

MHCC97H cells = assay: Assay for inhibiting the proliferation of MHCC97H cells (CCK-8); type: cell-based; settings: Homo sapiens
Protocol: (§1) In particular, the method of the assay of small molecular compounds for inhibiting cell proliferation is as follows: • 1. Cells cultured to a logarithmic growth phase (adherent cells need to be digested with trypsin and neutralized) were taken, pipetted evenly, transferred to a 15 mL centrifuge tube, and centrifuged at 1000 rpm at room temperature for 4 minutes; • 2. The supernatant was discarded; 5 mL of complete medium was added and pipetted evenly; 10 μL of cell suspension was taken out, mixed well with 10 μL of 0.4% trypan blue, and counted under a cell counter; the proportion of living cells was ensured to be above 90%; • 3. 80 μL of cell suspension per well was seeded into a 96-well plate according to the conditions shown in the attached table, and cultured overnight; in the outer 36 wells of the 96-well plate, no cells were added but only sterile water was added; only the inner 60 wells were used for cell assay and control; • 4. 5×compound dilution: the compounds were serially diluted 3-fold to obtain a total of 9 concentrations; 80-fold overall dilution was completed with complete medium, the resulting concentration was 5 times the final drug concentration, and DMSO concentration was 1.25%; • 5. 20 μL of the corresponding compounds with different concentration gradients were added to each well of assay wells of the 96-well plate; 20 μL of complete medium was added to positive and negative control wells and shaken well; and the final concentration of DMSO in each well was 0.25%; • 6. After 72 hours of incubation, 10 μL of CCK-8 reagent was added to each well and further incubated at 37° C. for 1-2 hours; and the OD value was read at 450 nm; • 7. Cell survival rate (%)=[(As−Ab)/(Ac−Ab)]*100% • As: Assay well (medium containing cells, CCK-8, compound), • Ac: Control well (medium containing cells, CCK-8), • Ab: Blank well (CCK-8, medium without cell and compound), • 8. The values were imported into Graphpad Prism 5 software for IC50 calculation.

Ba/F3 LMNA-NTRK1 cells = assay: Assay for inhibiting the proliferation of Ba/F3 LMNA-NTRK1 cells (CCK-8); type: cell-based; settings: Mus musculus, BaF3
Summary of the method: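 Viability was read as absorbance at 450 nm following 1–2 h CCK-8 incubation at 37 °C, relative to control and blank wells.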

[1] = tested on: Ba/F3 LMNA-NTRK1-G595R cells; assay: Assay for inhibiting the proliferation of Ba/F3 LMNA-NTRK1-G595R cells (CCK-8); type: cell-based; settings: Mus musculus, BaF3
Protocol: as §1

EBC1 cells = assay: Assay for inhibiting the proliferation of EBC1 cells (CCK-8); type: cell-based; settings: Homo sapiens, EBC-1
Protocol: as §1

Sequence of VEGFR-2 kinase (P35968 20-1356): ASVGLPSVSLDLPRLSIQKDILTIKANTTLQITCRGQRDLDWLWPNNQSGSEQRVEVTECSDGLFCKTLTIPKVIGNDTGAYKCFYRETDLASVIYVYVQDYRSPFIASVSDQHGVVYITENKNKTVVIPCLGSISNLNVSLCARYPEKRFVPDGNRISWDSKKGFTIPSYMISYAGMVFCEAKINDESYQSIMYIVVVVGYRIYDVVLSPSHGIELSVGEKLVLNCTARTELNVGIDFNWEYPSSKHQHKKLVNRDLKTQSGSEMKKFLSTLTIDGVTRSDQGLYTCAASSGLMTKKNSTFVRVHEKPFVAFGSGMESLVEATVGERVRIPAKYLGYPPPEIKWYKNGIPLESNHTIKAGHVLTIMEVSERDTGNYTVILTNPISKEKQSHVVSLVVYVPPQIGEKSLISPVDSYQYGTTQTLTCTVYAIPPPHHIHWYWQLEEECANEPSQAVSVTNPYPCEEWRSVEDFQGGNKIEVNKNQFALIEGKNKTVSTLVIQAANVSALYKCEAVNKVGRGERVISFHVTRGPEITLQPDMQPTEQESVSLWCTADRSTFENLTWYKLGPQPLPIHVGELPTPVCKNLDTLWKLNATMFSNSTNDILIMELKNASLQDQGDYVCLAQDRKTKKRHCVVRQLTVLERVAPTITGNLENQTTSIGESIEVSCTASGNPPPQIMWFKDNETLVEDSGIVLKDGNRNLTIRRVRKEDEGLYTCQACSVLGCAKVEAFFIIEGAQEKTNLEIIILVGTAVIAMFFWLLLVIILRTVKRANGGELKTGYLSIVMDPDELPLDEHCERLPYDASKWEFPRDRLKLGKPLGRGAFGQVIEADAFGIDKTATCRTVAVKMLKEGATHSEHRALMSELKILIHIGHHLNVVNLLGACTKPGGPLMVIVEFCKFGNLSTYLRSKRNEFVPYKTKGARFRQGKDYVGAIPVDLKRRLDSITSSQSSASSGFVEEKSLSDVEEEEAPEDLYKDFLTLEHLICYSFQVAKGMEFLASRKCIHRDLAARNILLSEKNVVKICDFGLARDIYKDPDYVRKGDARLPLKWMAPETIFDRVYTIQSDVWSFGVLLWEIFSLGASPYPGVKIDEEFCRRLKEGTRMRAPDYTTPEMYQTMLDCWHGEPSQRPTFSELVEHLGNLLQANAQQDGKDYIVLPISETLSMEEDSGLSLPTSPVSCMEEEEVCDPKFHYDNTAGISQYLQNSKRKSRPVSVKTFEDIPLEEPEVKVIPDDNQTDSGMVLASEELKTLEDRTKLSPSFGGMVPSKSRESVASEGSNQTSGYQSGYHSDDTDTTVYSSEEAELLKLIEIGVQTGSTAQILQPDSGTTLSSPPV

CN(C)CCCOc1cc2nccc(Oc3ccc(NC(=O)c4cn(C)c(=O)n(-c5ccc(F)cc5)c4=O)cc3F)c2c2c1OCCO2 [Example 86, N-(3-fluoro-4-((5-((3-dimethylamino)propoxy)-2,3-dihydro-[1,4]dioxino[2,3-f]quinolin-10-yl)oxy)phenyl)-3-(4-fluorophenyl)-1-methyl-2,4-dioxo-1,2,3,4-tetrahydropyrimidine-5-carboxamide]
IC50 (VEGFR-2 kinase): 50 to 500 nM | IC50 (Ba/F3-AXL cells): < 50 nM | IC50 (MHCC97H cells): 50 to 200 nM | IC50 (Ba/F3 LMNA-NTRK1 cells): < 50 nM | IC50 [1]: 50 to 200 nM | IC50 (EBC1 cells): ≤ 50 nM
